# Measured values as given in ChEMBL document CHEMBL3885881, “DrugMatrix”.
# Organism: Rattus norvegicus
# Experiment: DrugMatrix - Regimen: Daily Repeat
# Type: toxicity, organism-based, Sprague-Dawley
# Parameters: regimen Daily Repeat, gender Male, age 6-8 weeks
# Details: in vivo, po, route oral GAVAGE; for ALANINE AMINOTRANSFERASE / ALBUMIN / ALKALINE PHOSPHATASE / ASPARTATE AMINOTRANSFERASE / BLOOD UREA NITROGEN / CARBON DIOXIDE / CHLORIDE / CHOLESTEROL / CREATININE / GLUCOSE / LIPASE / PHOSPHORUS / POTASSIUM / SODIUM / TOTAL BILIRUBIN / CREATINE PHOSPHOKINASE / LACTATE DEHYDROGENASE / TOTAL PROTEIN / URIC ACID: tissue Plasma; for ABSOLUTE BASOPHIL / ABSOLUTE EOSINOPHIL / ABSOLUTE LYMPHOCYTE / ABSOLUTE MONOCYTE / ABSOLUTE SEGMENTED NEUTROPHIL / BASOPHIL / EOSINOPHIL / ERYTHROCYTE COUNT / HEMATOCRIT / HEMOGLOBIN / LEUKOCYTE COUNT / LYMPHOCYTE / MEAN CORPUSCULAR HEMOGLOBIN / MEAN CORPUSCULAR HEMOGLOBIN CONCENTRATION / MEAN CORPUSCULAR VOLUME / MONOCYTE / NEUTROPHIL / NUCLEATED RED BLOOD CELLS / PLATELET COUNT: tissue Blood
# [1] = 7 mg/kg, 96 h, dose level M1, time 4 day, […]
# [2] = 12 mg/kg, 72 h, dose level High, time 3 day, vehicle 100 % WATER
# [3] = 12 mg/kg, 120 h, dose level High, time 5 day, vehicle 100 % WATER
# [4] = […], 72 h, dose 9.6 mg/Kg, dose level M1, time 3 day, vehicle 100 % WATER
# [5] = […], 120 h, dose 9.6 mg/Kg, dose level M1, time 5 day, vehicle 100 % WATER
structure (smiles),measurement,setting,value
COc1ccc2c(c1)c(CC(=O)O)c(C)n2C(=O)c1ccc(Cl)cc1 [INDOMETHACIN],ALANINE AMINOTRANSFERASE,[1],65.33 u/L
same,ALBUMIN,[1],2.67 G/DL
same,ALKALINE PHOSPHATASE,[1],487 u/L
same,ASPARTATE AMINOTRANSFERASE,[1],260 u/L
same,BLOOD UREA NITROGEN,[1],49.33 mg/dL
same,CARBON DIOXIDE,[1],24.3 mmol/L
same,CHLORIDE,[1],100 MEQ/L
same,CHOLESTEROL,[1],61.33 mg/dL
same,CREATININE,[1],0.3 mg/dL
same,GLUCOSE,[1],83 mg/dL
same,LIPASE,[1],296.67 u/L
same,PHOSPHORUS,[1],8.35 mg/dL
same,POTASSIUM,[1],5.5 MEQ/L
same,SODIUM,[1],138 MEQ/L
same,TOTAL BILIRUBIN,[1],0.09 mg/dL
same,ABSOLUTE BASOPHIL,[2],0 CELLS/uL
same,ABSOLUTE EOSINOPHIL,[2],64 CELLS/uL
same,ABSOLUTE LYMPHOCYTE,[2],7403 CELLS/uL
same,ABSOLUTE MONOCYTE,[2],98 CELLS/uL
same,ABSOLUTE SEGMENTED NEUTROPHIL,[2],468.33 CELLS/uL
same,BASOPHIL,[2],0%
same,EOSINOPHIL,[2],0.67%
same,ERYTHROCYTE COUNT,[2],2.59 x10E6/uL
same,HEMATOCRIT,[2],16.8%
same,HEMOGLOBIN,[2],6.83 G/DL
same,LEUKOCYTE COUNT,[2],8.03 x10E3/uL
same,LYMPHOCYTE,[2],93.33%
same,MEAN CORPUSCULAR HEMOGLOBIN,[2],26.43 pg
same,MEAN CORPUSCULAR HEMOGLOBIN CONCENTRATION,[2],40.53 G/DL
same,MEAN CORPUSCULAR VOLUME,[2],65.07 fL
same,MONOCYTE,[2],1%
same,NEUTROPHIL,[2],5%
same,NUCLEATED RED BLOOD CELLS,[2],2.67 /100WBC
same,PLATELET COUNT,[2],714.67 x10E3/uL
same,ALANINE AMINOTRANSFERASE,[2],21 u/L
same,ALBUMIN,[2],1.93 G/DL
same,ALKALINE PHOSPHATASE,[2],177.67 u/L
same,ASPARTATE AMINOTRANSFERASE,[2],46.33 u/L
same,BLOOD UREA NITROGEN,[2],15.33 mg/dL
same,CARBON DIOXIDE,[2],27 mmol/L
same,CHLORIDE,[2],104.33 MEQ/L
same,CHOLESTEROL,[2],69.67 mg/dL
same,CREATINE PHOSPHOKINASE,[2],148.33 u/L
same,CREATININE,[2],0.1 mg/dL
same,GLUCOSE,[2],146.67 mg/dL
same,LACTATE DEHYDROGENASE,[2],36 u/L
same,LIPASE,[2],8.33 u/L
same,PHOSPHORUS,[2],11 mg/dL
same,POTASSIUM,[2],4.8 MEQ/L
same,SODIUM,[2],143.4 MEQ/L
same,TOTAL BILIRUBIN,[2],0.1 mg/dL
same,TOTAL PROTEIN,[2],4.5 G/DL
same,URIC ACID,[2],0.53 mg/dL
same,ABSOLUTE BASOPHIL,[3],0 CELLS/uL
same,ABSOLUTE EOSINOPHIL,[3],18.5 CELLS/uL
same,ABSOLUTE LYMPHOCYTE,[3],2977 CELLS/uL
same,ABSOLUTE MONOCYTE,[3],109 CELLS/uL
same,ABSOLUTE SEGMENTED NEUTROPHIL,[3],495.5 CELLS/uL
same,BASOPHIL,[3],0%
same,EOSINOPHIL,[3],0.5%
same,ERYTHROCYTE COUNT,[3],3.63 x10E6/uL
same,HEMATOCRIT,[3],21.7%
same,HEMOGLOBIN,[3],9.1 G/DL
same,LEUKOCYTE COUNT,[3],3.6 x10E3/uL
same,LYMPHOCYTE,[3],83%
same,MEAN CORPUSCULAR HEMOGLOBIN,[3],25 pg
same,MEAN CORPUSCULAR HEMOGLOBIN CONCENTRATION,[3],41.8 G/DL
same,MEAN CORPUSCULAR VOLUME,[3],59.9 fL
same,MONOCYTE,[3],3%
same,NEUTROPHIL,[3],13.5%
same,NUCLEATED RED BLOOD CELLS,[3],1.5 /100WBC
same,PLATELET COUNT,[3],1098.5 x10E3/uL
same,ALANINE AMINOTRANSFERASE,[3],17 u/L
same,ALBUMIN,[3],2.1 G/DL
same,ALKALINE PHOSPHATASE,[3],366 u/L
same,ASPARTATE AMINOTRANSFERASE,[3],84 u/L
same,BLOOD UREA NITROGEN,[3],37 mg/dL
same,CARBON DIOXIDE,[3],26 mmol/L
same,CHLORIDE,[3],108 MEQ/L
same,CHOLESTEROL,[3],66 mg/dL
same,CREATINE PHOSPHOKINASE,[3],224 u/L
same,CREATININE,[3],0.1 mg/dL
same,GLUCOSE,[3],132.5 mg/dL
same,LACTATE DEHYDROGENASE,[3],83.5 u/L
same,LIPASE,[3],12.5 u/L
same,PHOSPHORUS,[3],11.15 mg/dL
same,POTASSIUM,[3],5.62 MEQ/L
same,SODIUM,[3],146.9 MEQ/L
same,TOTAL BILIRUBIN,[3],0.15 mg/dL
same,TOTAL PROTEIN,[3],4.7 G/DL
same,URIC ACID,[3],0.45 mg/dL
same,ABSOLUTE BASOPHIL,[4],0 CELLS/uL
same,ABSOLUTE EOSINOPHIL,[4],39.33 CELLS/uL
same,ABSOLUTE LYMPHOCYTE,[4],13009.33 CELLS/uL
same,ABSOLUTE MONOCYTE,[4],145.33 CELLS/uL
same,ABSOLUTE SEGMENTED NEUTROPHIL,[4],3406 CELLS/uL
same,BASOPHIL,[4],0%
same,EOSINOPHIL,[4],0.33%
same,ERYTHROCYTE COUNT,[4],4.19 x10E6/uL
same,HEMATOCRIT,[4],26.67%
same,HEMOGLOBIN,[4],10.63 G/DL
same,LEUKOCYTE COUNT,[4],16.6 x10E3/uL
same,LYMPHOCYTE,[4],78.33%
same,MEAN CORPUSCULAR HEMOGLOBIN,[4],25.53 pg
same,MEAN CORPUSCULAR HEMOGLOBIN CONCENTRATION,[4],40 G/DL
same,MEAN CORPUSCULAR VOLUME,[4],63.8 fL
same,MONOCYTE,[4],1%
same,NEUTROPHIL,[4],20.33%
same,NUCLEATED RED BLOOD CELLS,[4],0 /100WBC
same,PLATELET COUNT,[4],984.67 x10E3/uL
same,ALANINE AMINOTRANSFERASE,[4],50.33 u/L
same,ALBUMIN,[4],3.17 G/DL
same,ALKALINE PHOSPHATASE,[4],197.33 u/L
same,ASPARTATE AMINOTRANSFERASE,[4],77.33 u/L
same,BLOOD UREA NITROGEN,[4],13.33 mg/dL
same,CARBON DIOXIDE,[4],26 mmol/L
same,CHLORIDE,[4],102.67 MEQ/L
same,CHOLESTEROL,[4],72.33 mg/dL
same,CREATINE PHOSPHOKINASE,[4],564.67 u/L
same,CREATININE,[4],0.3 mg/dL
same,GLUCOSE,[4],162.33 mg/dL
same,LACTATE DEHYDROGENASE,[4],111.33 u/L
same,LIPASE,[4],11.67 u/L
same,PHOSPHORUS,[4],10.83 mg/dL
same,POTASSIUM,[4],5.33 MEQ/L
same,SODIUM,[4],141.3 MEQ/L
same,TOTAL BILIRUBIN,[4],0.1 mg/dL
same,TOTAL PROTEIN,[4],5.07 G/DL
same,URIC ACID,[4],1.23 mg/dL
same,ABSOLUTE BASOPHIL,[5],0 CELLS/uL
same,ABSOLUTE EOSINOPHIL,[5],0 CELLS/uL
same,ABSOLUTE LYMPHOCYTE,[5],4773 CELLS/uL
same,ABSOLUTE MONOCYTE,[5],34 CELLS/uL
same,ABSOLUTE SEGMENTED NEUTROPHIL,[5],943 CELLS/uL
same,BASOPHIL,[5],0%
same,EOSINOPHIL,[5],0%
same,ERYTHROCYTE COUNT,[5],4.33 x10E6/uL
same,HEMATOCRIT,[5],26.75%
same,HEMOGLOBIN,[5],10.7 G/DL
same,LEUKOCYTE COUNT,[5],5.75 x10E3/uL
same,LYMPHOCYTE,[5],81%
same,MEAN CORPUSCULAR HEMOGLOBIN,[5],24.7 pg
same,MEAN CORPUSCULAR HEMOGLOBIN CONCENTRATION,[5],40 G/DL
same,MEAN CORPUSCULAR VOLUME,[5],61.75 fL
same,MONOCYTE,[5],0.5%
same,NEUTROPHIL,[5],18.5%
same,NUCLEATED RED BLOOD CELLS,[5],1 /100WBC
same,PLATELET COUNT,[5],1266.5 x10E3/uL
same,ALANINE AMINOTRANSFERASE,[5],53.5 u/L
same,ALBUMIN,[5],3 G/DL
same,ALKALINE PHOSPHATASE,[5],320 u/L
same,ASPARTATE AMINOTRANSFERASE,[5],129 u/L
same,BLOOD UREA NITROGEN,[5],45 mg/dL
same,CARBON DIOXIDE,[5],33 mmol/L
same,CHLORIDE,[5],92.5 MEQ/L
same,CHOLESTEROL,[5],60.5 mg/dL
same,CREATINE PHOSPHOKINASE,[5],215 u/L
same,CREATININE,[5],0.32 mg/dL
same,GLUCOSE,[5],131 mg/dL
same,LACTATE DEHYDROGENASE,[5],112.5 u/L
same,LIPASE,[5],24.5 u/L
same,PHOSPHORUS,[5],11.45 mg/dL
same,POTASSIUM,[5],5.66 MEQ/L
same,SODIUM,[5],139.9 MEQ/L
same,TOTAL BILIRUBIN,[5],0.15 mg/dL
same,TOTAL PROTEIN,[5],5.8 G/DL
same,URIC ACID,[5],1.05 mg/dL
